Results published in US8563013B2, “Systems and methods for delivering a fluid drug” (Janssen Biotech, Inc., priority 2007, dated 2013).

Test: Light-induced degradation of a carbidopa-containing fluid formulation
Type: physicochemical
Conditions: fluid formulation having carbidopa; visible light with wavelengths in the range of about 400 nm to about 550 nm
Source text: In some embodiments, the reservoir, and/or other portions of a dosing container, can be adapted to hinder exposure of a contained fluid from portions of a light spectrum, which can be capable of degrading or rendering one or more components of a fluid ineffective. […] Accordingly, if a container is adapted to hinder a carbidopa-containing fluid from being exposed to at least wavelengths in about the 400 nm to about 550 nm range, preservation of the carbidopa can be enhanced. As well, other embodiments can utilize other techniques, in combination or alone, which effectively reduce degradation of a carbidopa-containing fluid in the presence of visible light, such as adding a dye to the carbidopa-containing fluid (e.g., FD&C Yellow 6) to absorb the undesired light components. Other techniques, including ones familiar to those skilled in the art, can also be used.

Q: With `C[C@@](Cc1ccc(O)c(O)c1)(NN)C(=O)O` [carbidopa] as the molecule, how does the “degradation on exposure to light” value read?
A: found to degrade
